Experimental data: ChEMBL document CHEMBL2016569, “Pyronepolyene C-glucosides with NF-κB inhibitory and anti-influenza A viral (H1N1) activities from the sponge-associated fungus Epicoccum sp. JJY40” (Bioorg Med Chem Lett, 2012)

Experiments:
Influenza A virus = test: Antiviral activity against Influenza A virus (A/Puerto Rico/8/34(H1N1)) infected in MDCK cells assessed as inhibition of virus induced cytopathicity after 48 hrs; format: functional, organism-based; settings: A/Puerto Rico/8/1934(H1N1)
[1] = Inhibition of LPS-induced NFkappaB expression in mouse RAW264.7 cells pretreated for 4 hrs before LPS challenge measured after 24 hrs by luciferase reporter gene assay relative to control; format: cell-based
RAW264.7 = test: Inhibition of LPS-induced NFkappaB expression in mouse RAW264.7 cells at 0.1 uM pretreated for 4 hrs before LPS challenge measured after 24 hrs by luciferase reporter gene assay relative to control; format: cell-based

| Compound | IC50 (Influenza A virus) [µM] | IC50 [1] [µM] | inhibition (RAW264.7) [%] |
| --- | --- | --- | --- |
| CCC(C)CC(C)/C=C(/C=C(C)\C=C\C=C\C=C\C=C\C=C\c1cc(O)c([C@@H]2O[C@H](CO)[C@H](O)[C@H](O)[C@H]2O)c(=O)o1)C(=O)O (stereo partly specified) | 91.5 | 40 | – |
| CCC(C)CC(C)/C=C(/C=C(C)/C=C/C=C/C=C/C=C/C=C/c1cc(O)c([C@@H]2O[C@H](CO)[C@H](O)[C@H](O)[C@H]2O)c(=O)o1)C(=O)O (stereo partly specified) | 101 | 50 | – |
| NC(=O)c1ncn([C@@H]2O[C@H](CO)[C@@H](O)[C@H]2O)n1 [RIBAVIRIN] | 115 | – | – |
| S=C(S)N1CCCC1 | – | – | 85 |
